From patent US12227495B2, “Herbicidal compounds” (SYNGENTA CROP PROTECTION AG, priority 2018, dated 2025) come the findings set out here.

Assay type in all cases: in vivo
Holding throughout (settings): evaluated after 13 days

The subject of assay [1] is Amaranthus retoflexus (AMARE). The assay is described as follows: Post-emergence herbicide test, glasshouse, percentage damage. In outline: (§1)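 Compounds are applied as aqueous sprays at 500 g/ha, unless otherwise stated, either one day after sowing or to 8-day-old plants. Injury is assessed after 13 days and expressed on a 1-5 scale, where 5 means 81-100% damage.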
For assay [2], the system named is Echinochloa crus-galli (ECHCG). Described as above. In outline:
as §1

For assay [3], the system named is Ipomoea hederacea (IPOHE). The description is as above. An outline of the steps: as §1
For assay [4], the system named is Lolium perenne (LOLPE). Described as above. An outline of the steps:
as §1

The test system of assay [5] is Setaria faberi (SETFA). The assay is described as above. In outline: as §1
Assay [6] concerns Solanum nigrum (SOLNI). Described as above. In outline:
as §1

The subject of assay [7] is Amaranthus retoflexus (AMARE). Nature of the assay: Pre-emergence herbicide test, glasshouse, percentage damage. An outline of the steps: as §1
Assay [8] relates to Echinochloa crus-galli (ECHCG). Described as above. An outline of the steps:
as §1

The subject of assay [9] is Ipomoea hederacea (IPOHE). Described as above. In outline:
as §1

The test system of assay [10] is Lolium perenne (LOLPE). The description is as above. An outline of the steps: as §1
In assay [11] the test system is Setaria faberi (SETFA). The assay is described as above. In outline:
as §1

Assay [12] relates to Solanum nigrum (SOLNI). The assay is described as above. An outline of the steps: as §1

Structures are written as SMILES.

Regarding `Fc1cc(Cl)cnc1Oc1ccccc1-n1cc(Cl)cn1` [Compound A24, 5-chloro-2-[2-(4-chloropyrazol-1-yl)phenoxy]-3-fluoro-pyridine], the “percentage damage caused to the plant, AMARE” value in [1] (1000 g/ha) is 4 (4=61-80%). Also, the “percentage damage caused to the plant, ECHCG” value in assay [2] (1000 g/ha) is 4 (4=61-80%). In [3] (1000 g/ha), the “percentage damage caused to the plant, IPOHE” value is listed as 3 (3=41-60%). Moreover, the “percentage damage caused to the plant, LOLPE” value in the assay with Lolium perenne (LOLPE) [4] (1000 g/ha) was 3 (3=41-60%). The “percentage damage caused to the plant, SETFA” value in the assay on Setaria faberi (SETFA) [5] (1000 g/ha) is listed as 4 (4=61-80%). The “percentage damage caused to the plant, SOLNI” value in the assay with Solanum nigrum (SOLNI) [6] (1000 g/ha) is on record as 4 (4=61-80%). Also, in [7] (rate 1000 g/ha), the “Pre-emergence Test AMARE percentage damage (five point scale)” value is 5 (5=81-100%). Besides, in assay [8] (rate 1000 g/ha), the “Pre-emergence Test ECHCG percentage damage (five point scale)” value was 5 (5=81-100%). Moreover, the “Pre-emergence Test IPOHE percentage damage (five point scale)” value in assay [9] (rate 1000 g/ha) is given as 3 (3=41-60%). Moreover, in the assay on Lolium perenne (LOLPE) [10] (rate 1000 g/ha), the “Pre-emergence Test LOLPE percentage damage (five point scale)” value is on record as 4 (4=61-80%). The “Pre-emergence Test SETFA percentage damage (five point scale)” value in the assay with Setaria faberi (SETFA) [11] (rate 1000 g/ha) is given as 5 (5=81-100%). The “Pre-emergence Test SOLNI percentage damage (five point scale)” value with Solanum nigrum (SOLNI) [12] (rate 1000 g/ha) is reported as 3 (3=41-60%).
With `Fc1cc(Cl)cnc1Oc1cccc(F)c1-c1cc(C(F)(F)F)on1` [Compound A25, 3-[2-[(5-chloro-3-fluoro-2-pyridyl)oxy]-6-fluoro-phenyl]-5-(trifluoromethyl)isoxazole], the “percentage damage caused to the plant, AMARE” value in [1] (1000 g/ha) is listed as 5 (5=81-100%). The “percentage damage caused to the plant, ECHCG” value in assay [2] (1000 g/ha) is on record as 4 (4=61-80%). In assay [3] (1000 g/ha), the “percentage damage caused to the plant, IPOHE” value is 4 (4=61-80%). Besides, the “percentage damage caused to the plant, LOLPE” value with Lolium perenne (LOLPE) [4] (1000 g/ha) is 5 (5=81-100%). Also, the “percentage damage caused to the plant, SETFA” value in the assay on Setaria faberi (SETFA) [5] (1000 g/ha) was 5 (5=81-100%). In addition, the “percentage damage caused to the plant, SOLNI” value in the assay on Solanum nigrum (SOLNI) [6] (1000 g/ha) is recorded as 5 (5=81-100%). In addition, the “Pre-emergence Test AMARE percentage damage (five point scale)” value in [7] (rate 1000 g/ha) is 5 (5=81-100%). In addition, the “Pre-emergence Test ECHCG percentage damage (five point scale)” value in [8] (rate 1000 g/ha) was 5 (5=81-100%). Besides, the “Pre-emergence Test IPOHE percentage damage (five point scale)” value in [9] (rate 1000 g/ha) is listed as 5 (5=81-100%). Besides, the “Pre-emergence Test LOLPE percentage damage (five point scale)” value with Lolium perenne (LOLPE) [10] (rate 1000 g/ha) is given as 5 (5=81-100%). Moreover, the “Pre-emergence Test SETFA percentage damage (five point scale)” value in the assay on Setaria faberi (SETFA) [11] (rate 1000 g/ha) is recorded as 5 (5=81-100%). Further, the “Pre-emergence Test SOLNI percentage damage (five point scale)” value with Solanum nigrum (SOLNI) [12] (rate 1000 g/ha) is given as 5 (5=81-100%).
On to `N#Cc1cnn(-c2ccccc2Oc2ncc(Cl)cc2F)c1` [Compound A26], for which, in [1] (1000 g/ha), the “percentage damage caused to the plant, AMARE” value is 5 (5=81-100%). Besides, the “percentage damage caused to the plant, ECHCG” value in assay [2] (1000 g/ha) is 5 (5=81-100%). The “percentage damage caused to the plant, IPOHE” value in assay [3] (1000 g/ha) is listed as 3 (3=41-60%). For the same compound, in the assay with Lolium perenne (LOLPE) [4] (1000 g/ha), the “percentage damage caused to the plant, LOLPE” value was 3 (3=41-60%). Besides, the “percentage damage caused to the plant, SETFA” value in the assay on Setaria faberi (SETFA) [5] (1000 g/ha) is given as 5 (5=81-100%). Moreover, the “percentage damage caused to the plant, SOLNI” value in the assay with Solanum nigrum (SOLNI) [6] (1000 g/ha) was 5 (5=81-100%). Further, the “Pre-emergence Test AMARE percentage damage (five point scale)” value in [7] (rate 1000 g/ha) is 5 (5=81-100%). The “Pre-emergence Test ECHCG percentage damage (five point scale)” value in assay [8] (rate 1000 g/ha) is recorded as 5 (5=81-100%). In addition, the “Pre-emergence Test IPOHE percentage damage (five point scale)” value in [9] (rate 1000 g/ha) is reported as 4 (4=61-80%). For the same compound, the “Pre-emergence Test LOLPE percentage damage (five point scale)” value in the assay with Lolium perenne (LOLPE) [10] (rate 1000 g/ha) was 5 (5=81-100%). Moreover, the “Pre-emergence Test SETFA percentage damage (five point scale)” value in the assay on Setaria faberi (SETFA) [11] (rate 1000 g/ha) is 5 (5=81-100%). The “Pre-emergence Test SOLNI percentage damage (five point scale)” value in the assay with Solanum nigrum (SOLNI) [12] (rate 1000 g/ha) is 5 (5=81-100%).
On to `Fc1cc(Cl)cnc1Oc1ccccc1-n1cc(Br)cn1` [Compound A27], for which the “percentage damage caused to the plant, AMARE” value in assay [1] (250 g/ha) is 4 (4=61-80%). In addition, the “percentage damage caused to the plant, ECHCG” value in [2] (250 g/ha) was 5 (5=81-100%). In addition, the “percentage damage caused to the plant, IPOHE” value in assay [3] (250 g/ha) is on record as 2 (2=21-40%). In the assay with Lolium perenne (LOLPE) [4] (250 g/ha), the “percentage damage caused to the plant, LOLPE” value is listed as 2 (2=21-40%). Besides, in the assay with Setaria faberi (SETFA) [5] (250 g/ha), the “percentage damage caused to the plant, SETFA” value is recorded as 5 (5=81-100%). For the same compound, the “percentage damage caused to the plant, SOLNI” value with Solanum nigrum (SOLNI) [6] (250 g/ha) is recorded as 5 (5=81-100%). Also, the “Pre-emergence Test AMARE percentage damage (five point scale)” value in assay [7] (rate 250 g/ha) is listed as 5 (5=81-100%). Moreover, in [8] (rate 250 g/ha), the “Pre-emergence Test ECHCG percentage damage (five point scale)” value was 5 (5=81-100%). For the same compound, the “Pre-emergence Test IPOHE percentage damage (five point scale)” value in assay [9] (rate 250 g/ha) is given as 1 (1=0-20%). Moreover, the “Pre-emergence Test LOLPE percentage damage (five point scale)” value with Lolium perenne (LOLPE) [10] (rate 250 g/ha) is reported as 3 (3=41-60%). Also, in the assay on Setaria faberi (SETFA) [11] (rate 250 g/ha), the “Pre-emergence Test SETFA percentage damage (five point scale)” value is given as 4 (4=61-80%). The “Pre-emergence Test SOLNI percentage damage (five point scale)” value in the assay on Solanum nigrum (SOLNI) [12] (rate 250 g/ha) is reported as 5 (5=81-100%).
